# Literature values as cited in US11589577B2, “Nanotechnology system for agricultural applications” (priority 2012, dated 2023).
# Conditions: binds soil ions; stated as known issue
substance,measurement,value
abamectin,soil mobility (general statement),poor soil mobility
